Results on five compounds are retold here after ChEMBL document CHEMBL1150045, “Callyspongenols A-C, new cytotoxic C22-polyacetylenic alcohols from a red sea sponge, Callyspongia species” (J Nat Prod, 2003).

SMILES strings stand for the structures. Values after ≈ are worked out from the molar mass of the structure shown.

One assay relates to P388. In words: Cytotoxicity against mouse P388 cells. The class given is functional, cell-based.
In another assay the test system is HeLa. In words: Cytotoxicity against human HeLa cells. It is filed as functional, cell-based.

On to `C#C/C=C\CCCCC#CCCCCC#CCCCC#CCO`, for which the results for the IC50 with P388 and with HeLa were 2.2 µg/mL (≈ 7.13 µM) and 4.5 µg/mL (≈ 14.6 µM), respectively.

As for `C#C/C=C\CCCCCCC#CC#CCCC/C=C\C#CCO` [CALLYSPONGENOL B], the IC50 with P388 and in the assay with HeLa was 10 µg/mL (≈ 32.6 µM) in each case.

For `C#C/C=C\CCCC/C=C\C#CC#CCCC/C=C\C#CCO` [CALLYSPONGENOL C], the IC50 in the assay with P388 came to 2.2 µg/mL (≈ 7.23 µM); in the assay on HeLa, 3.9 µg/mL (≈ 12.8 µM).

For `C#C/C=C\CCCCC#CC#CC#CCCC/C=C\C#CCO` [DEHYDROISOPHONOCHALYNOL], the results for the IC50 in the assay with P388 and with HeLa were 2.2 µg/mL (≈ 7.27 µM) and 5.1 µg/mL (≈ 16.9 µM), respectively.

Regarding `COc1cccc2c1C(=O)c1c(O)c3c(c(O)c1C2=O)C[C@@](O)(C(=O)CO)C[C@@H]3O[C@H]1C[C@H](N)[C@H](O)[C@H](C)O1` [DOXORUBICIN], the IC50 with P388 was found to be 0.04 µg/mL (≈ 0.0736 µM); in the assay with HeLa it was 0.066 µg/mL (≈ 0.121 µM).

By IC50 is commonly meant the midpoint of a concentration-inhibition curve. Read a low IC50 as greater potency.
